Experimental data taken from patent publication US11478440B2, “Combination of Elafibranor or derivatives thereof with an anti-NASH, anti-fibrotic or anti-cholestatic agent” (GENFIT, priority 2017, dated 2022).

Key:
[1] = test system: mice with NASH (CDFF-fed mice); assay: Mouse fibrosing-NASH model (CDFF diet, 8 weeks); type: in vivo, C57Bl/6J mice
Description: The preventive effects of the combinations of elafibranor with selonsertib, GKT-831 or GS-0976 were assessed in mice fed a choline-deficient, […] diet (CDAA) supplemented with 2% cholesterol, 30% milk fat diet and high fructose corn syrup 55 (55% fructose/45% glucose for a final concentration of 42 g/L) in drinking water (Mells et al J Nutr Biochem 2015) (CDFF diet). 5-6 weeks old male C57Bl/6J mice were fed a control (CSAA) diet (n=4), CDFF (n=12), or CDFF supplemented with elafibranor (1 or 3 mg/kg/day), selonsertib (30 mg/kg/day), GKT-831 ([…]) alone or in combination (n=8 per group) for 8 weeks.
The body weight, the food and water intake were monitored twice per week. On the last day of treatment, plasma samples were obtained from retro-orbital blood sampling and mice were sacrificed after a 6 h-fasting period. The liver was rapidly excised for biochemical and histological analyses. All animal procedures were performed according to standard protocols and in accordance with the standard recommendations for the proper care and use of laboratory animals.
The liver slices were fixed in a formalin 4% solution. Then, the liver pieces were washed 30 minutes in PBS, and dehydrated in ethanol solutions (successive baths at 70, 80, 95 and 100% ethanol). The liver pieces were incubated in three different baths of Xylene (Honeywell cat #534056), followed by two baths in liquid paraffin (59° C.). Liver pieces were then put into racks that were gently filled with HISTOWAX to completely cover the tissue.
Liver sections were deparaffinized, rehydrated and incubated for 3 minutes in Mayer's Hematoxylin (Microm, cat #F/C0303). Then, the liver sections were rinsed in water and incubated 1 minute in a Eosin Y 0.5% alcoholic (VWR, cat #1.02439.0500) and Erythrosin 0.5% solution (VWR, cat #1.15936.0010), and rinsed in with ethanol. Sections were then incubated for 2 minutes in Safranin, and were eventually dehydrated and mounted using the CV Mount medium (Leica, cat #046430011).
(§1) Liver sections were deparaffinized, rehydrated and incubated for 15 minutes in a solution of Fast Green FCF 0.1% (Sigma-Aldrich, cat #F7258) before rinsing in a bath of 0.5% acetic acid (Panreac, cat #131008.1611). Then, the liver sections were rinsed in water and incubated 30 minutes in a solution of 0.1% sirius red (Direct Red 80, Fluka cat #43665) in saturated aqueous picric acid (Sigma-Aldrich cat #P6744). Sections were then dehydrated, and mounted using the CV Mount medium (Leica, cat #14046430011).
(§2) A technician blinded to the source of each liver specimen performed histological examinations. Virtual slides were generated using the Pannoramic 250 scanner from 3D Histech. For each animal, a score summarizing the main histological lesions of NASH was attributed according to the NASH Clinical Research Network (Kleiner 2005, Brunt 1999). Briefly, steatosis, lobular inflammation and hepatocyte ballooning were scored. The NAFLD Activity Score (NAS) was established for each individual as the unweighted sum of the steatosis (0-3), lobular inflammation (0-3) and the ballooning (0-2) injury grading.
(§3) Using Quant Center software (3D Histech, including Pattern Quant and Histo Quant modules), collagen-stained areas were quantified. Briefly, Pattern Quant was used to detect the tissue and measure its surface. Then, Histo Quant was used to detect the stained collagen content and measure its surface, based on a color threshold method. The fibrosis area was then expressed as the percentage of the collagen surface to the whole tissue per animal.
The hepatic collagen content was determined using the appropriate QuickZyme kit (Total collagen assay, cat #QZB-totcol2). The assay is based on the detection of hydroxyproline, which is a non-proteinogenic amino acid mainly found in the triple helix of collagen. […]

TGFβ1-induced hHSC = assay: α-SMA ELISA in TGFβ1-induced human primary hepatic stellate cells; type: cell-based
Description: (§4) The human primary hepatic stellate cells (hHSC) (Innoprot) were cultured in STeCM medium (ScienCell cat #5301) that was supplemented with 2% fetal bovine serum (FBS, ScienCell cat #0010), 1% penicillin/streptomycin (ScienCell cat #0503) and stellate cell growth supplement (SteCGS; ScienCell cat #5352). Cell culture flasks were coated with Poly-L Lysine (Sigma cat #P4707) for a better adherence.
For these experiments, a checkerboard matrix was generated. ELA and component (ii) stocks were serially diluted in DMSO in 5-points series in a row (ELA) and a 11-points series in a column (component (ii)) of a 96-well plate. Subsequently, the 5×11 combination matrix was generated by 1:1 mixing of all single agent concentrations. The test concentrations for each compound were chosen based on the respective IC50 of each compound as single agent obtained by measuring α-SMA content in the HSC model stimulated with TGF-β1.
The human primary hepatic stellate cells (hHSC) (Innoprot) were cultured under standard conditions, as described above. The cells were subsequently plated at a density of 2×10^4 cells/well into 96-well plates for the measure of α-SMA by ELISA. The next day, cell-culture medium was removed, and cells were washed with PBS (Invitrogen cat #14190). hHSC were deprived for 24 hours in serum-free and SteCGS-free medium. For the treatments with ELA, component (ii) and the respective ELA/component (ii) combinations, the serum-deprived hHSC were preincubated for 1 hour with the compounds followed by addition of the profibrogenic stimuli TGF-β1 (PeproTech cat #100-21, 1 ng/mL) in serum-free and SteCGS-free medium for an additional 48 hour period.
The level of α-SMA was measured using a Sandwich ELISA. Briefly, the wells of an ELISA plate were first coated with the capture antibody (mouse monoclonal anti-ACTA2, Abnova) at 4° C. overnight. After 3 washes in PBS+0.2% Tween 20, a blocking solution consisting of PBS+0.2% BSA was added for one hour followed by another washing cycle. The cell lysates were transferred into the wells for binding to the capture antibody for a period of 2 h at room temperature. After the washing procedure, the detection antibody (biotinylated mouse monoclonal anti-ACTA2, Abnova) was added for 2 hours at room temperature followed by 3 washes. For the detection, an HRP-conjugated Streptavidin (R&D Systems cat #DY998) was first applied for 30 min at room temperature. After washing, the HRP substrate TMB (BD, #555214) was added and incubated for 7 min at room temperature in the dark. Upon oxidation, TMB forms a water-soluble blue reaction product that becomes yellow with addition of sulfuric acid (solution stop), enabling accurate measurement of the intensity at 450 nm using a spectrophotometer. The developed color is directly proportional to the amount of α-SMA present in the lysate.
as §4, with “Cell-culture” for “Cell culture”
For these experiments, a checkerboard matrix was generated. CVC and Elafibranor stocks were serially diluted in DMSO in a 5-points series in a row (Elafibranor) and a 6-points series in a column (Cenicriviroc) of a 96-well plate. Subsequently, the […] combination matrix was generated by 1:1 mixing of all single agent concentrations. The test concentrations for each compound were chosen based on the respective IC50 of each compound as single agent obtained by measuring α-SMA content in the HSC model stimulated with TGF-β1.
The human primary hepatic stellate cells (hHSC) (Innoprot) were cultured under standard conditions, as described above. […]

[2] = test system: fibrosing NASH-model of rats fed a CDAA+1% cholesterol diet; assay: Chronic CDAA+1% cholesterol rat model: hepatic collagen content (hydroxyproline); type: in vivo, Wistar rats; conditions: GFT505 3 mg/kg/d, OCA 10 mg/kg/d, alone or combined; 12 weeks in diet
Description: (§5) The preventive effects of Elafibranor alone, OCA alone and the combination of both were assessed in a fibrosing NASH-model of rats fed a CDAA+1% cholesterol diet. 150-175 g male Wistar rats were fed a control (CSAA) diet, CDAA+1% cholesterol diet, or CDAA+1% cholesterol diet supplemented with Elafibranor 1, 3 and 10 mg/kg/day, OCA 10 and 30 mg/kg/day or combined drugs (Elafibranor 1, 3 and 10 mg/kg/day combined to OCA 10 mg/kg/day) for 12 weeks.
(§6) The body weight and the food intake were monitored twice per week. On the last day of treatment, rats were sacrificed after a 6 h fasting period. The liver was rapidly excised for biochemical and histological studies.
The hepatic collagen content was determined using the appropriate QuickZyme kit (Total collagen assay, cat #QZB-totcol2). The assay is based on the detection of hydroxyproline, which is a non-proteinogenic amino acid mainly found in the triple helix of collagen. Thus, hydroxyproline in tissue hydrolysates can be used as a direct measure of the amount of collagen present in the tissue (without discrimination between procollagen, mature collagen and collagen degradation products).
Complete hydrolysis of tissue samples in 6M HCl at 95° C. is required before dosing the hydroxyproline. The assay results in the generation of a chromogen with a maximum absorbance at 570 nm. Results are expressed as mg of collagen/g of liver.

[3] = test system: fibrosing NASH-model of rats fed a CDAA+1% cholesterol diet; assay: Chronic CDAA+1% cholesterol rat model: liver histology (picrosirius fibrosis surface, NASH lesions); type: in vivo, Wistar rats; conditions: GFT505 3 mg/kg/d, OCA 10 mg/kg/d, alone or combined; 12 weeks in diet
Description: as §5, §6
The liver slices were first fixed for 12 hours in formalin 4% solution. Then, the liver pieces were washed 30 minutes in PBS, and dehydrated in ethanol solutions (successive baths at 70, 80, 95 and 100% ethanol). The liver pieces were incubated in three different baths of Xylene (Sigma-Aldrich cat #534056), followed by two baths in liquid paraffin (56° C.). Liver pieces were then put into racks that were gently filled with HISTOWAX to completely cover the tissue.
The paraffin blocks containing the tissue pieces were removed from the racks and stored at room temperature. The liver blocks were cut into 3 μm slices.
Liver sections were deparaffinized, rehydrated and incubated for 3 minutes in Mayer's Hematoxylin (Microm, cat #F/C0303). Then, the liver sections were rinsed in water and incubated 1 minute in Eosin G (VWR, cat #1.09844.1000). Sections were rinsed in water then dehydrated, and mounted using the CV Mount medium (Leica, cat #14046430011).
as §1
as §2, with “hepatocytes” for “hepatocyte”, “(NAS score)” for “(NAS)”
as §3

[4] = test system: fibrosing NASH-model of rats fed a CDAA+1% cholesterol diet; assay: Chronic CDAA+1% cholesterol rat model: hepatic gene expression (qPCR); type: in vivo, Wistar rats; conditions: liver; GFT505 3 mg/kg/d, OCA 10 mg/kg/d, alone or combined; 12 weeks
Description: as §5, §6
Total RNA was isolated from rat livers using RNeasy Mini Kit (Qiagen) following manufacturer's instructions. Total RNA were reverse transcribed into cDNA using M-MLV RT (Moloney Murine Leukemia Virus Reverse Transcriptase) (Invitrogen cat #28025) in 1×RT buffer (Invitrogen), 0.5 mM DTT (Invitrogen), 0.18 mM dNTPs (Promega), 200 ng pdN6 (Amersham) and 30 U of RNase inhibitor (Promega).
Quantitative PCR was then carried out using the CFX96 TOUCH Real-Time PCR Detection System (Biorad). Briefly, the PCR reactions were performed in 96-WP format in 25 μl of total volume containing 1 μL of reverse transcription reaction, 0.5 μL of reverse and forward primers (10 pmol each), and 12.5 μl of 2×iQ SYBR Green Supermix (BioRad), using the following primer sequences:
Expression levels were normalized using the expression of RPLP0 gene as a housekeeping gene of reference in samples. For each gene, the standard curves were drawn by selecting the best points (at least three points) in order to have PCR reaction efficiency close to 100% and a correlation coefficient close to 1. Expression levels were determined using the standard curve equation for both the housekeeping gene and the target gene (taking into account the specific PCR efficiency of each target gene).

Cc1cc(F)c(C(=O)Nc2cccc(-c3nncn3C(C)C)n2)cc1-n1cnc(C2CC2)c1 [Selonsertib, reference compound] was tested, and the “hepatic fibrosis (histology, hepatic collagen content, PIIINP and TIMP-1)” value ([1]; elafibranor 3 mg/kg/day, selonsertib 30 mg/kg/day, alone or combined) was “improved hepatic fibrosis in this model, albeit to a minor extent than elafibranor”.

With CN(C)c1cccc(-c2c3c(=O)n(-c4ccccc4Cl)[nH]c3cc(=O)n2C)c1 [GKT-831, 2-(2-chlorophenyl)-4-[3-(dimethylamino)phenyl]-5-methyl-1H-pyrazolo[4,3-c]pyridine-3,6(2H,5H)-dione, reference compound] the “effect on NASH and fibrosis” value ([1]; GKT-831 60 mg/kg/day alone) was “no beneficial effect”.

In the case of CCCCOCCOc1ccc(-c2ccc3c(c2)/C=C(/C(=O)Nc2ccc([S@@+]([O-])Cc4cncn4CCC)cc2)CCCN3CC(C)C)cc1 [CVC, Cenicriviroc, reference compound], the “antifibrotic activity (α-SMA), single agent” value (TGFβ1-induced hHSC; 5 μM of CVC alone) is reported as “does not show any antifibrotic activity” and the “antifibrotic activity (α-SMA), single agent” value (TGFβ1-induced hHSC; TGFβ1-activated hHSC, dose range) is reported as “did not show a significant effect at all doses”.

CC[C@H]1[C@@H](O)[C@@H]2[C@H](CC[C@]3(C)[C@@H]([C@H](C)CCC(=O)O)CC[C@@H]23)[C@@]2(C)CC[C@@H](O)C[C@@H]12 [OCA, obeticholic acid, reference compound] was tested, and the “Hepatic collagen content, percentage over the untreated CDAA + 1% cholesterol rats” value [2] was 67% ± 23%, the “Fibrosis surface, percentage over the untreated CDAA + 1% cholesterol rats” value [3] was 74% ± 45% and the “CCR5 mRNA level (marker of inflammation), percentage over the untreated CDAA + 1% cholesterol rats” value [4] was 81% ± 28%. The “TGFβ1 mRNA level, percentage over the untreated CDAA + 1% cholesterol rats” value [4] was 110% ± 23%, the “TIMP1 mRNA level, percentage over the untreated CDAA + 1% cholesterol rats” value [4] was 110% ± 43% and the “αSMA mRNA level, percentage over the untreated CDAA + 1% cholesterol rats” value [4] was 109% ± 68%.

In the case of COc1ccccc1[C@H](Cn1c(=O)n(C(C)(C)C(=O)O)c(=O)c2c(C)c(-c3ncco3)sc21)OC1CCOCC1 [GS-0976, reference compound], the “effect on liver fat and body weight” value ([1]; GS-0976 30 mg/kg/day alone) is reported as “mild beneficial effect”.
